Assay results published in US8952033B2, “4-anilinofuro[2,3-b]quinoline derivatives, their preparation processes, and pharmaceutical compositions comprising the same” (Kaohsiung Medical University, priority 2011, dated 2015).
Marks after values point to notes of the source that are not given here.

Experiments:
[1] = system: MCF-7 (breast cancer cell); test: MTT antiproliferative assay (cell growth %, GI50), MCF-7; type: cell-based
How it was run: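 Cells exposed to compounds in DMSO or vehicle for 48 hours; MTT (2 mg/mL) added before and after treatment for 2 hours, formazan dissolved in DMSO and OD570 read. GI50 from three determinations, reported as mean±SD.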

[2] = system: MRC-5 (human lung fibroblast cell); test: GI50 determination on normal cell line MRC-5; type: cell-based; conditions: MRC5, normal cell line, mean±SD, read-out: GI50 MRC-5
Protocol: Antiproliferative activities of the compounds of this invention were evaluated substantially according to the method as described in Tseng, C. […] The cells were treated with the test compounds, i.e., the compounds of this invention (in dimethylsulfoxide (DMSO)), or DMSO for 48 hours.
Before and after the treatment with the test compounds or DMSO, 3-(4,5-dimethylthiazol-2-yl)-2,5-diphenyltetrazolium bromide (MTT, 2 mg/mL, 100 μL) was added to each of the cultures, followed by cultivation for 2 hours. The resultant formazan was dissolved by the addition of DMSO. Absorbance at 570 nm (OD570) was measured using a microtiter plate reader (Dynex MRX-II).
Determination of GI50 was conducted thrice for each test compound. GI50 is expressed as mean±SD.

[3] = system: HeLa (human cervical epithelioid carcinoma cell); test: Preferential antiproliferative activity, HeLa; type: cell-based
Protocol: (§1) Determination of GI50 of compounds 13a, 13c, 14a, 14c, 15a, 16a was conducted substantially according to the method as described in the preceding section A entitled “Evaluation of antiproliferative activity”, except that the normal cell line MRC-5 was also utilized, and that camptothecin and daunorubicin were tested instead of compounds 1, 2, 3. The concentration of the respective test compound, which can reduce absorbance by 50% (compared with DMSO), is regarded as GI50, and can be determined via dose-response curves. Determination of GI50 was conducted thrice for each test compound. GI50 is expressed as mean±SD.
(§2) SI stands for selectivity index and was calculated by substituting GI50 into the following formula: D=E/F (2) where • D=SI • E=GI50 of the respective test compound for cells of the normal cell line • F=GI50 of the respective test compound for cells of the cancer cell line The experimental results are summarized in Table 4. […]

[4] = system: SKHep-1 (hepatocellular carcinoma cell); test: Preferential antiproliferative activity, SKHep; type: cell-based
Protocol: as §1, §2

[5] = system: CE81T (human esophageal carcinoma cell); test: Preferential antiproliferative activity, CE81T; type: cell-based
Protocol: as §1, §2

[6] = system: A549 (human lung adenocarcinoma cell); test: Preferential antiproliferative activity, A549; type: cell-based
Protocol: as §1, §2

[7] = system: NCI-H1299 (non-small cell lung carcinoma cell); test: Preferential antiproliferative activity, NCI-H1299; type: cell-based
Protocol: as §1, §2

[8] = system: NCI-H611; test: Preferential antiproliferative activity, NCI-H611; type: cell-based
Protocol: as §1, §2

[9] = Single-dose pharmacokinetic analysis in CD-1 mice; type: in vivo
Protocol: CD-1 mice were divided into two groups. The first group of mice (n=9) were used to assess the singe-dose pharmacokinetics of the test compounds after intravenous administration, and the second group of mice (n=9) were utilized to assess the singe-dose pharmacokinetics of the test compounds after oral administration. All of the mice were fasted from 4 hours before the administration of the test compounds until 4 hours after the administration of the test compounds.
The assessment for singe-dose pharmacokinetics of the test compounds after intravenous administration was performed as follows. The first group of mice were further randomly divided into three subgroups including compound 13a group (n=3), compound 14a group (n=3), and compound 1 group (n=3). Compounds 13a, 14a, 1 (in polyethylene glycol 400/ethanol/water (30/5/65, v/v/v)) were respectively administered to the mice in compound 13a group, compound 14a group, and compound 1 group at a dose of 2 mg/kg via tail vein injection. Blood samples (0.25 mL) were collected from the mice by virtue of cardiac puncture right before the intravenous administration, and at 2 min, 5 min, 15 min, 30 min, 1 hr, 1.5 hr, 2 hr, 4 hr, 6 hr, 9 hr, 24 hr, and 27 hr after the intravenous administration.
The assessment for singe-dose pharmacokinetics of the test compounds after oral administration was conducted as follows. The second group of mice were further randomly divided into three subgroups including compound 13a group (n=3), compound 14a group (n=3), and compound 1 group (n=3). Compounds 13a, 14a, 1 (in 0.5% methylcellulose) were respectively administered to the mice in compound 13a group, compound 14a group, and compound 1 group at a dose of 20 mg/kg via tube feeding. Blood samples (0.25 mL) were collected from the mice by virtue of cardiac puncture right before the oral administration, and at 15 min, 30 min, 1 hr, 1.5 hr, 2 hr, 4 hr, 6 hr, 9 hr, 24 hr, and 27 hr after the oral administration.
Each of the blood samples was placed in a 0.5 mL Microtainer® tube containing anticoagulant EDTA-K2, followed by mixing evenly. Centrifugation at 7000 g and 4° C. was conducted for 5 minutes. Plasma was collected and was mixed uniformly with a proper amount of acetonitrile, followed by centrifugation. The resultant supernatant was acquired, and was injected into a reversed-phase Biosil ODS column so as to determine the concentration of the respective test compound in plasma (i.e., the plasma concentration of the respective test compound) using a LC-MS/MS system (Waters 2795 LC and Micromass Quattro Ultima). The singe-dose pharmacokinetic parameters of the respective test compound were calculated from the obtained concentration of the respective test compound in plasma (i.e., the obtained plasma concentration of the respective compound) at different time points using WinNonlin Standard Program (version 3.1, Pharsight Corp.)

[10] = intravenous administration, 2 mg/kg

In the case of `C/C(=N\OCCN)c1ccc(Nc2c3ccccc3nc3occc23)cc1` [Compound 13a, (E)-1-(4-(furo[2,3-b]quinolin-4-ylamino)phenyl)ethanone O-2-aminoethyl oxime], the “SI MCF-7” value ([1]; GI50 MRC-5 / GI50 MCF-7) is reported as 4.59, the activity at 4000 µg/mL ([1]; Homo sapiens, MCF7, 4 mg/ml, 48 hours, MTT) is reported as 66% and the activity at 20000 µg/mL ([1]; Homo sapiens, MCF7, 20 mg/ml, 48 hours, MTT) is reported as -1%. For the same compound, the GI50 ([1]; Homo sapiens, MCF7, mean±SD, read-out: GI50 MCF-7) was 9.34 ± 0.92 µM, the GI50 [2] was 42.9 ± 1.05 µM and the GI50 ([3]; Homo sapiens, HeLa, mean±SD) was 8.31 ± 0.6 µM. For the same compound, the “SI HeLa” value ([3]; versus MRC-5) was 5.16, the GI50 ([4]; Homo sapiens, SK-HEP1, mean±SD) was 13.1 ± 3.75 µM and the “SI SKHep” value ([4]; versus MRC-5) was 3.26. The GI50 ([5]; Homo sapiens, CE81T, mean±SD) was 16.9 ± 1.88 µM, the “SI CE81T” value ([5]; versus MRC-5) was 2.53 and the GI50 ([6]; Homo sapiens, A549, mean±SD) was 6.58 ± 2.99 µM. For the same compound, the “SI A549” value ([6]; versus MRC-5) was 6.51, the GI50 ([7]; Homo sapiens, NCI-H1299, mean±SD) was 3.08 ± 1.12 µM and the “SI NCI-H1299” value ([7]; versus MRC-5) was 13.91. For the same compound, the GI50 ([8]; mean±SD) was 0.98 ± 0.27 µM, the “SI NCI-H611” value ([8]; versus MRC-5) was 43.72 and the “AUC(0-inf)” value [9, 10] was 362.6 ng·h/mL. It also gave a CL [9, 10] of 91.9 mL/min/kg, an MRT [9, 10] of 2.5 h and a Vss [9, 10] of 13.5 L/kg. For the same compound, the Vz [9, 10] was 38.8 L/kg, the Cmax ([9]; intravenous administration, 2 mg/kg, extrapolated plasma concentration at 0 hr) was 1488.4 ng/mL and the t1/2 ([9]; intravenous administration, 2 mg/kg, from 0.5-1.5 hr (compd. 1) or 9-27 hr (13a, 14a)) was 4.9^d hr. The Bioavailability ([9]; oral 20 mg/kg versus intravenous 2 mg/kg) was 57.1%, the “AUC(0-inf)” value ([9]; oral administration, 20 mg/kg) was 2071.6 ng·h/mL and the Cmax ([9]; oral administration, 20 mg/kg) was 1905.0 ng/mL. It also gave an MRT ([9]; oral administration, 20 mg/kg) of 3.0 h, a Tmax ([9]; oral administration, 20 mg/kg) of 0.5 h and a t1/2 ([9]; oral administration, 20 mg/kg, from 2-6 hr (compd. 1), 2-24 hr (13a), 2-9 hr (14a)) of 3.4 h.
